From publication PMC12283027, “Development of Potent and Selective RIPK1 Degraders Targeting Its Nonenzymatic Function for Cancer Treatment” (Journal of Medicinal Chemistry, 2025)

target: T1, Receptor-interacting protein kinase 1 (RIPK1) (Homo sapiens, UniProt Q13546); assay: cell-based; design: HiBiT luminescence of CRISPR-tagged endogenous RIPK1 (C-terminal HiBiT) after PROTAC treatment; degradation DC50 and Dmax; details: HEK293T-RIPK1-HiBiT cells; read-out: Dmax (HEK293T-RIPK1-HiBiT cell line)
T1 construct: with VHL
T1 sequence (Q13546 whole entry): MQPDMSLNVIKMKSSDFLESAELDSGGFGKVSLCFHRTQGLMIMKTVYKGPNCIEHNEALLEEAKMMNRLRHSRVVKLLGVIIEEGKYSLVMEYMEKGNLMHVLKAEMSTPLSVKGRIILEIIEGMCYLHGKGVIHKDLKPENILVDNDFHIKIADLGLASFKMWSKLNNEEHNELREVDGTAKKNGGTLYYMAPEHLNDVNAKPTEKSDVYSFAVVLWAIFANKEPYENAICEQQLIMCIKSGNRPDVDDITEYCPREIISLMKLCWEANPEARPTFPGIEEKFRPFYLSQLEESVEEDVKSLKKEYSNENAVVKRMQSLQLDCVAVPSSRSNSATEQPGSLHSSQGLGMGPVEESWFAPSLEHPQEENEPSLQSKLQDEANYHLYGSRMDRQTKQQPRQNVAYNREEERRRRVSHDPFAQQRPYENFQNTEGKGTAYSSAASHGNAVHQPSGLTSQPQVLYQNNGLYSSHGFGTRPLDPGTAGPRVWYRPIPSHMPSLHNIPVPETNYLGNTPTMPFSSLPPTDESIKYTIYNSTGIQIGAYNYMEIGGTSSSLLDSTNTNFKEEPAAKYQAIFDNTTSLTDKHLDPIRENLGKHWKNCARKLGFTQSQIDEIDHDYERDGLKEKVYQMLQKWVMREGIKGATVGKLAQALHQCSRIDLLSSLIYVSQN
T1 sequence (P40337 whole entry partner): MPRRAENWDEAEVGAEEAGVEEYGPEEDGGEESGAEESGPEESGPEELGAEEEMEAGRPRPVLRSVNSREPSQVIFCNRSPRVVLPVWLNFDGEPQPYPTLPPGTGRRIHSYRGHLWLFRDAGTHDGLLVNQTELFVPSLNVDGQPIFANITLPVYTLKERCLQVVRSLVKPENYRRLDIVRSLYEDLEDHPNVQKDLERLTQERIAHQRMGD
Description: Screening of RIPK1 Degraders Using HEK-293T-RIPK1-HiBiT cells  3 Primary screening RIPK1 degraders using HEK293T-RIPK1-HiBiT cell line. Cells were seeded in 96-well plates and treated with test compounds for 20 h. After treatment, Bioluminescence signal reflecting RIPK1 protein level was generated by adding Nano-Glo HiBiT detect reagent. A) Bioluminescence signal was visualized using Bio-Rad ChemiDoc MP Imaging system. The grayscale intensity is positively correlated with protein abundance. B) Relative luminescence Units (RLUs) in each well was measured using CLARIOstar plate reader. DC50 values were calculated by nonlinear regression analysis in GraphPad Prism software. DC50 = dose that reduces RIPK1 protein by 50%. D max = maximum reduction of RIPK1 protein achieved by the compound. Guide RNA oligos for RIPK1 (foward: CACCGA-GCCCAT-CCAGGG-TTAGTTC. reverse: AAACGA-ACTAAC-CCTGGA-TGGGCTC) were cloned into Cas9 expression plasmid (pSpCas9–2A-GFP purchased from Addgene), and cotransfected with donor DNA oligo using FuGENE HD Transfection Reagent (Promega). GFP positive cells were FACS sorted and single clones were screened for HiBiT signal by Nano Glo HiBiT Lytic Detection System (Promega).

Structure (SMILES)	Dmax [%]
Cc1ncsc1-c1ccc([C@H](C)NC(=O)[C@@H]2C[C@@H](O)CN2C(=O)[C@@H](NC(=O)COc2ccc(CCNC(=O)Cn3cc(-c4cnc(N)c5c(-c6ccc7c(c6)CCN7C(=O)Cc6ccccc6)csc45)cn3)cc2)C(C)(C)C)cc1 [204-2]	95
Cc1ncsc1-c1ccc([C@H](C)NC(=O)[C@@H]2C[C@@H](O)CN2C(=O)[C@@H](NC(=O)CCOc2ccc(CCNC(=O)Cn3cc(-c4cnc(N)c5c(-c6ccc7c(c6)CCN7C(=O)Cc6ccccc6)csc45)cn3)cc2)C(C)(C)C)cc1 [204-4]	96
Cc1ncsc1-c1ccc([C@H](C)NC(=O)[C@@H]2C[C@@H](O)CN2C(=O)[C@@H](NC(=O)CCCOc2ccc(CCNC(=O)Cn3cc(-c4cnc(N)c5c(-c6ccc7c(c6)CCN7C(=O)Cc6ccccc6)csc45)cn3)cc2)C(C)(C)C)cc1 [204-6]	81
Cc1ncsc1-c1ccc([C@H](C)NC(=O)[C@@H]2C[C@@H](O)CN2C(=O)[C@@H](NC(=O)COCCOCCNC(=O)Cn2cc(-c3cnc(N)c4c(-c5ccc6c(c5)CCN6C(=O)Cc5ccccc5)csc34)cn2)C(C)(C)C)cc1 [208-2]	78
Cc1ncsc1-c1ccc([C@H](C)NC(=O)[C@@H]2C[C@@H](O)CN2C(=O)[C@@H](NC(=O)COCCOCCOCCNC(=O)Cn2cc(-c3cnc(N)c4c(-c5ccc6c(c5)CCN6C(=O)Cc5ccccc5)csc34)cn2)C(C)(C)C)cc1 [208-4]	75
Cc1ncsc1-c1ccc([C@H](C)NC(=O)[C@@H]2C[C@@H](O)CN2C(=O)[C@@H](NC(=O)COCCOCCOCCOCCNC(=O)Cn2cc(-c3cnc(N)c4c(-c5ccc6c(c5)CCN6C(=O)Cc5ccccc5)csc34)cn2)C(C)(C)C)cc1 [208-6]	55
Cc1ncsc1-c1ccc([C@H](C)NC(=O)[C@@H]2C[C@@H](O)CN2C(=O)[C@@H](NC(=O)COc2ccc(CNC(=O)Cn3cc(-c4cnc(N)c5c(-c6ccc7c(c6)CCN7C(=O)Cc6ccccc6)csc45)cn3)cc2)C(C)(C)C)cc1 [214-6]	71
Cc1ncsc1-c1ccc([C@H](C)NC(=O)[C@@H]2C[C@@H](O)CN2C(=O)[C@@H](NC(=O)CCCOc2ccc(CNC(=O)Cn3cc(-c4cnc(N)c5c(-c6ccc7c(c6)CCN7C(=O)Cc6ccccc6)csc45)cn3)cc2)C(C)(C)C)cc1 [214-7]	81
Cc1ncsc1-c1ccc([C@H](C)NC(=O)[C@@H]2C[C@@H](O)CN2C(=O)[C@@H](NC(=O)CCCCOc2ccc(CNC(=O)Cn3cc(-c4cnc(N)c5c(-c6ccc7c(c6)CCN7C(=O)Cc6ccccc6)csc45)cn3)cc2)C(C)(C)C)cc1 [214-8]	90
Cc1ncsc1-c1ccc([C@H](C)NC(=O)[C@@H]2C[C@@H](O)CN2C(=O)[C@@H](NC(=O)CCCCCOc2ccc(CNC(=O)Cn3cc(-c4cnc(N)c5c(-c6ccc7c(c6)CCN7C(=O)Cc6ccccc6)csc45)cn3)cc2)C(C)(C)C)cc1 [214-9]	87
Cc1ncsc1-c1ccc([C@H](C)NC(=O)[C@@H]2C[C@@H](O)CN2C(=O)[C@@H](NC(=O)CCCCCCOc2ccc(CNC(=O)Cn3cc(-c4cnc(N)c5c(-c6ccc7c(c6)CCN7C(=O)Cc6ccccc6)csc45)cn3)cc2)C(C)(C)C)cc1 [214-10]	92
Cc1ncsc1-c1ccc([C@H](C)NC(=O)[C@@H]2C[C@@H](O)CN2C(=O)[C@@H](NC(=O)CNC(=O)Cn2cc(-c3cnc(N)c4c(-c5ccc6c(c5)CCN6C(=O)Cc5ccccc5)csc34)cn2)C(C)(C)C)cc1 [216-9]	1
Cc1ncsc1-c1ccc([C@H](C)NC(=O)[C@@H]2C[C@@H](O)CN2C(=O)[C@@H](NC(=O)CCNC(=O)Cn2cc(-c3cnc(N)c4c(-c5ccc6c(c5)CCN6C(=O)Cc5ccccc5)csc34)cn2)C(C)(C)C)cc1 [216-10]	25
Cc1ncsc1-c1ccc([C@H](C)NC(=O)[C@@H]2C[C@@H](O)CN2C(=O)[C@@H](NC(=O)CCCNC(=O)Cn2cc(-c3cnc(N)c4c(-c5ccc6c(c5)CCN6C(=O)Cc5ccccc5)csc34)cn2)C(C)(C)C)cc1 [216-11]	62
Cc1ncsc1-c1ccc([C@H](C)NC(=O)[C@@H]2C[C@@H](O)CN2C(=O)[C@@H](NC(=O)CCCCNC(=O)Cn2cc(-c3cnc(N)c4c(-c5ccc6c(c5)CCN6C(=O)Cc5ccccc5)csc34)cn2)C(C)(C)C)cc1 [216-12]	51
Cc1ncsc1-c1ccc([C@H](C)NC(=O)[C@@H]2C[C@@H](O)CN2C(=O)[C@@H](NC(=O)CCCCCNC(=O)Cn2cc(-c3cnc(N)c4c(-c5ccc6c(c5)CCN6C(=O)Cc5ccccc5)csc34)cn2)C(C)(C)C)cc1 [216-13]	93

Structure (SMILES)	Dmax [%]
Cc1ncsc1-c1ccc([C@H](C)NC(=O)[C@@H]2C[C@@H](O)CN2C(=O)[C@@H](NC(=O)CCCCCCNC(=O)Cn2cc(-c3cnc(N)c4c(-c5ccc6c(c5)CCN6C(=O)Cc5ccccc5)csc34)cn2)C(C)(C)C)cc1 [216-14]	88
Cc1ncsc1-c1ccc([C@H](C)NC(=O)[C@@H]2C[C@@H](O)CN2C(=O)[C@@H](NC(=O)CCCCCCCNC(=O)Cn2cc(-c3cnc(N)c4c(-c5ccc6c(c5)CCN6C(=O)Cc5ccccc5)csc34)cn2)C(C)(C)C)cc1 [216-15]	94
Cc1ncsc1-c1ccc([C@H](C)NC(=O)[C@@H]2C[C@@H](O)CN2C(=O)[C@@H](NC(=O)CCCCCCCCNC(=O)Cn2cc(-c3cnc(N)c4c(-c5ccc6c(c5)CCN6C(=O)Cc5ccccc5)csc34)cn2)C(C)(C)C)cc1 [216-16]	93
Cc1ncsc1-c1ccc([C@H](C)NC(=O)[C@@H]2C[C@@H](O)CN2C(=O)[C@@H](NC(=O)COc2ccc(NC(=O)Cn3cc(-c4cnc(N)c5c(-c6ccc7c(c6)CCN7C(=O)Cc6ccccc6)csc45)cn3)cc2)C(C)(C)C)cc1 [217-10]	96
Cc1ncsc1-c1ccc([C@H](C)NC(=O)[C@@H]2C[C@@H](O)CN2C(=O)[C@@H](NC(=O)CCCOc2ccc(NC(=O)Cn3cc(-c4cnc(N)c5c(-c6ccc7c(c6)CCN7C(=O)Cc6ccccc6)csc45)cn3)cc2)C(C)(C)C)cc1 [217-11]	95
Cc1ncsc1-c1ccc([C@H](C)NC(=O)[C@@H]2C[C@@H](O)CN2C(=O)[C@@H](NC(=O)CCCCOc2ccc(NC(=O)Cn3cc(-c4cnc(N)c5c(-c6ccc7c(c6)CCN7C(=O)Cc6ccccc6)csc45)cn3)cc2)C(C)(C)C)cc1 [217-12]	93
Cc1ncsc1-c1ccc([C@H](C)NC(=O)[C@@H]2C[C@@H](O)CN2C(=O)[C@@H](NC(=O)CCCCCOc2ccc(NC(=O)Cn3cc(-c4cnc(N)c5c(-c6ccc7c(c6)CCN7C(=O)Cc6ccccc6)csc45)cn3)cc2)C(C)(C)C)cc1 [217-13]	92
Cc1ncsc1-c1ccc([C@H](C)NC(=O)[C@@H]2C[C@@H](O)CN2C(=O)[C@@H](NC(=O)COCCOc2ccc(CNC(=O)Cn3cc(-c4cnc(N)c5c(-c6ccc7c(c6)CCN7C(=O)Cc6ccccc6)csc45)cn3)cc2)C(C)(C)C)cc1 [224-5]	93
Cc1ncsc1-c1ccc([C@H](C)NC(=O)[C@@H]2C[C@@H](O)CN2C(=O)[C@@H](NC(=O)COCCOc2ccc(CCNC(=O)Cn3cc(-c4cnc(N)c5c(-c6ccc7c(c6)CCN7C(=O)Cc6ccccc6)csc45)cn3)cc2)C(C)(C)C)cc1 [224-6]	93
Cc1ncsc1-c1ccc([C@H](C)NC(=O)[C@@H]2C[C@@H](O)CN2C(=O)[C@@H](NC(=O)COCCOCCOc2ccc(CNC(=O)Cn3cc(-c4cnc(N)c5c(-c6ccc7c(c6)CCN7C(=O)Cc6ccccc6)csc45)cn3)cc2)C(C)(C)C)cc1 [224-7]	93
Cc1ncsc1-c1ccc([C@H](C)NC(=O)[C@@H]2C[C@@H](O)CN2C(=O)[C@@H](NC(=O)COCCOCCOc2ccc(CCNC(=O)Cn3cc(-c4cnc(N)c5c(-c6ccc7c(c6)CCN7C(=O)Cc6ccccc6)csc45)cn3)cc2)C(C)(C)C)cc1 [224-8]	92
Cc1ncsc1-c1ccc([C@H](C)NC(=O)[C@@H]2C[C@@H](O)CN2C(=O)[C@@H](NC(=O)CN2CCN(C3CCN(C(=O)Cn4cc(-c5cnc(N)c6c(-c7ccc8c(c7)CCN8C(=O)Cc7ccccc7)csc56)cn4)CC3)CC2)C(C)(C)C)cc1 [225-2]	91
Cc1ncsc1-c1ccc([C@H](C)NC(=O)[C@@H]2C[C@@H](O)CN2C(=O)[C@@H](NC(=O)CN2CCN(C(=O)Cn3cc(-c4cnc(N)c5c(-c6ccc7c(c6)CCN7C(=O)Cc6ccccc6)csc45)cn3)CC2)C(C)(C)C)cc1 [225-3]	87
Cc1ncsc1-c1ccc([C@H](C)NC(=O)[C@@H]2C[C@@H](O)CN2C(=O)[C@@H](NC(=O)CN2CCN(CC3CCN(C(=O)Cn4cc(-c5cnc(N)c6c(-c7ccc8c(c7)CCN8C(=O)Cc7ccccc7)csc56)cn4)CC3)CC2)C(C)(C)C)cc1 [225-4]	93
Cc1ncsc1-c1ccc([C@H](C)NC(=O)[C@@H]2C[C@@H](O)CN2C(=O)[C@@H](NC(=O)CN2CCN(CC3CCN(CC4CCN(C(=O)Cn5cc(-c6cnc(N)c7c(-c8ccc9c(c8)CCN9C(=O)Cc8ccccc8)csc67)cn5)CC4)CC3)CC2)C(C)(C)C)cc1 [225-5, (2S,4R)-1-((S)-2-(2-(4-((1-((1-(2-(4-(4-Amino-3-(1-(2-phenylacetyl)indolin-5-yl)thieno[3,2-c]pyridin-7-yl)-1H-pyrazol-1-yl)acetyl)piperidin-4-yl)methyl)piperidin-4-yl)methyl)piperazin-1-yl)acetamido)-3,3-dimethylbutanoyl)-4-hydroxy-N-((S)-1-(4-(4-methylthiazol-5-yl)phenyl)ethyl)pyrrolidine-2-carboxamide]	93
